From paper PMC12566971, “Polyprenylated Acylphloroglucinols from Hypericum rochelii and Hypericum olympicum—Cytotoxic Effects on Non-Tumorigenic Cell Lines and Antibacterial Potential” (Pharmaceuticals, 2025)

System: rabbit skin
Settings: in vivo
Experimental: Dermal toxicological screening of the chosen two non-toxic active substances was performed on animals. This was carried out according to the European standard ISO 10993-10: 2010 (E): Biological evaluation of medical devices, Part 10 Skin irritation and sensitization tests (6. […] The animal study protocol was approved by the opinion No. 148 of 09.04.2019 of the Ethics Committee of the Bulgarian Food Safety Agency of the Ministry of Agriculture, Food, and Forestry. The Permit to work with experimental rabbits No. 232 was valid until 11.04.2024 and issued on the basis of Article 155, paragraph 7, of the Veterinary Medical Activity Act. The albino rabbits were cared for as specified in ISO 10993-2 (withdrawn; superseded by ISO 10993-2:2022) and Ordinance No. 20 (State Gazette of Bulgaria, No. 87, 9 November 2012). Four square test sites were made on the back of the rabbit by clipping the fur. The samples were applied to 2 of them, while the other 2 were used as a positive control (10–20% SDS) and a negative control (the buffer in which the agents were diluted, i.e., PBS). The exposure time was 4 h, and at the end of it the appearance was checked for erythema (redness) and edema. Additional inspections were performed at hours 24, 48, and 72.

SMILES: CC(C)=CCCC1(C)C(CC=C(C)C)CC2C(=O)C1(C(=O)C(C)C)C(=O)C(CC=C(C)C)=C2O (stereo not shown) [Olympiforin B]
- Skin irritation on rabbits: do not cause skin toxicity
